Consider 1 compound from patent US20110003760A1, “ABNORMAL PROTEIN REMOVING METHOD” (priority 2005, published 2011).

This experiment relates to carbonylated protein in three-dimensional human skin model TESTSKIN (LSE-high). In words: Carbonylated protein in three-dimensional human skin model, Western blotting (DNPH). The experiment is classed as cell-based. The conditions noted are these: for Relative photographic density (carbonylated protein): untreated without UV = 100%. The procedure: Three-dimensional human skin models are widely used in safety evaluation and effectiveness evaluation as a simulated model of human skin. In this test, TESTSKIN (LSE-high) (Toyobo Co., Ltd.) was used as a three-dimensional human skin model.
A culture medium was added to the outer well of TESTSKIN (LSE-high) and cultured for 24 hours. UVA and UVB were irradiated at 10 J/cm^2 and 100 mJ/cm^2, respectively. UVB was irradiated for 2 minutes at a UV intensity of […] using FL20S-E-30/DMR (Clinical Supply Co., Ltd.) to achieve a total irradiation dose of 100 mJ/cm^2. UV intensity was measured using a UV MONITOR MS-211-I (Eiko Instruments Co., Ltd.).
As a control group, three-dimensional human skin models not irradiated with UVA or UVB were also prepared.
Thereafter, the culture solution was changed and each agent was added by 100 μl onto the tissues in the assay ring, after which the medium was cultured for 36 hours. Thereafter, the tissues were collected and a tissue extraction solution (50 mM Tris-HCl (pH 7.5), 0.5% (Octylphenoxy) polyethoxyethanol (Sigma-Aldrich Corp.)) was added, and then the mixture was homogenized using a Teflon (registered trademark) homogenizer. The homogenized mixture was centrifuged for 30 minutes at 10,000×G to remove tissue fragments, and then dialyzed overnight in distilled water at 4° C. Thereafter, the dialyzed mixture was freeze-dried to remove water. A tissue extraction solution was added to obtain a ×20 concentrate, and this concentrate was used as a three-dimensional skin model extract sample.
In this test, 2,4-dinitrophenyl hydrazine (DNPH), which specifically bonds with the carbonyl group in the protein produced by oxidation damage, was used to label carbonylated protein, and then detection was performed using an anti-DNPH antibody that specifically bonds with DNPH.
The specific method is explained below. DNPH protein was detected from the protein in the sample by means of Western blotting using a DNPH kit (Oxi Blot™ Protein Oxidation Detection Kit; Chemicon International Inc.). Detection was performed by exposing PVDF membranes to light using a […] (ECL PLUS; Amarsham PLC), and an automatic developer (FPM100; FUJIFILM Medical Co., Ltd.) was used to transfer images. A densitometer (Molecular Dynamics Inc.) was then used to analyze the images to quantify the photographic density. For your information, protein in the sample was reduced and measured as deemed appropriate. In this case, 2-mercaptoethanol was used as a reducing agent and the mixture was heated for 5 minutes at 100° C. to sever the disulfide bond.
Based on the above results, it is clear that Bletilla striata extract and silybin suppress accumulation of carbonylated protein in a three-dimensional skin model in a manner dependent on the concentration. Accordingly, whether or not a combined use of Bletilla striata extract and silybin would synergistically suppress accumulation of carbonylated protein was evaluated. Also, whether or not a combined use of silybin and soybean saponin, a substance known to have an action to suppress accumulation of carbonylated protein, would synergistically suppress accumulation of carbonylated protein was evaluated. As a result, regardless of whether or not UV light was irradiated using silybin (3 μM) in combination with Bletilla striata extract (0.1%; final extract concentration of 0.001%), or using silybin (3 μM) in combination with soybean saponin (0.0005%), suppressed the accumulation of carbonylated protein synergistically compared to when a sample was treated with silybin (3 μM), Bletilla striata extract (0.1%; final extract concentration of 0.001%) or soybean saponin (0.0005%) alone, as far as accumulation of carbonylated protein in a three-dimensional skin model was concerned (FIG. 7 and Table 7; results of non-reduced protein).

For the compound `COc1cc(C2Oc3cc([C@H]4Oc5cc(O)cc(O)c5C(=O)[C@@H]4O)ccc3OC2CO)ccc1O` (stereo partly shown) [Silybin, silybin], the “Relative photographic density (carbonylated protein)” value is, setting by setting: (Table 7, non-reduced protein, head printed UV (−), silybin 3 μM, Bletilla striata extract 0.1%, soybean saponin 0.0005%, alone or combined) 300%; (Table 7, non-reduced protein, first column UV (−), silybin 3 μM, Bletilla striata extract 0.1%, soybean saponin 0.0005%, alone or combined) 60%; (non-reduced protein, treatment concentration 3 μM, UV (+)) 95%; (non-reduced protein, treatment concentration 3 μM, UV (−)) 55%; (non-reduced protein, treatment concentration 10 μM, UV (+)) 30%; (non-reduced protein, treatment concentration 10 μM, UV (−)) 8%. Besides, the “Relative photographic density (carbonylated protein)” value is, setting by setting: (reduced protein, treatment concentration 3 μM, UV (+)) 85%; (reduced protein, treatment concentration 3 μM, UV (−)) 50%; (reduced protein, treatment concentration 10 μM, UV (+)) 35%; (reduced protein, treatment concentration 10 μM, UV (−)) 5%; (reduced protein, treatment concentration 10 μM, UV (−), listed as silybin) 10%. The “amount of carbonylated protein compared to the sample not given any treatment under UV irradiation” value runs as follows: (non-reduced protein, 3 μM) 30%; (non-reduced protein, 10 μM) 9%; (non-reduced protein, silybin 3 μM, Bletilla striata extract 0.1%, soybean saponin 0.0005%, alone or combined) 60%; (reduced protein, 3 μM) 25%; (reduced protein, 10 μM) 10%.
